Values after ≈ are worked out from the molar mass of the structure shown. Like-named read-outs stand apart in the source and are kept apart here.
What was measured:
[1] = tested on: Plasmodium falciparum, chloroquine-sensitive strain NF54; assay: activity against P. falciparum in vitro, strain NF54; assay type: cell-based; details: chloroquine-sensitive strain NF54, 48 h-72 h; for IC50: Plasmodium falciparum, read-out: IC50 (50% growth inhibition)
Method: (§1) Test method for the determination of the activity against P. falciparum in vitro
(§2) The preparations of the present invention were tested on intraerythrocytary stages of P. falciparum from asynchronous cultures according to the method of Desjardin et al. (Desjardins, R. E. et al: Quantitative assessment of antimalarial activity in vitro by a semiautomated microdilution technique. Antimicrob. Agents Chemother. 16, 710-718, (1979)).
(§3) The culture medium consisted of RPMI 1640 with the addition of 25 mM HEPES, 25 mM NaHCO3, […] neomycin and 10% human serum (A^+). Human-A^+ erythrocytes were used as the P. falciparum host cells. The parasites were maintained at 37° C. in an atmosphere of 3% O2, 4% CO2, 93% N2 and at 95% relative humidity.
(§4) In order to determine the activity, the preparations were dissolved in DMSO, pre-diluted in the culture medium to a suitable starting concentration and subsequently titrated-out into microtitre plates in the 2nd stage over 6-7 steps. After the addition of the parasite culture (0.7% parasitemia in 2.5% erythrocyte suspension), the test plates were incubated under the conditions given above for 48 h-72 h. The parasite growth in the different preparation concentrations was determined using [G-^3 H]-hypoxanthin incorporation compared to untreated control cultures on the same test plates. The 50% growth inhibition (IC50) was calculated according to logit regression analysis from the resulting dosage-activity curve.
(§5) The preparations were tested on at least one chloroquine-resistant and one chloroquine-sensitive P. falciparum strain. Additional sensitive and resistant strains were also included for further characterization.
(§6) Table 1 below contains the IC50 values measured in vitro for the growth inhibition of chloroquine-sensitive and chloroquine-resistant strains of the human pathogenic Plasmodium falciparum.

[2] = tested on: Plasmodium falciparum, chloroquine-sensitive strain FCH5C2; assay: activity against P. falciparum in vitro, strain FCH5C2; assay type: cell-based; details: chloroquine-sensitive strain FCH5C2, 48 h-72 h, read-out: IC50 (50% growth inhibition)
Method: as §1, §2, §3, §4, §5, §6

[3] = tested on: Plasmodium falciparum, chloroquine-sensitive strain HB3; assay: activity against P. falciparum in vitro, strain HB3; assay type: cell-based; details: chloroquine-sensitive strain HB3, 48 h-72 h, read-out: IC50 (50% growth inhibition)
Method: as §1, §2, §3, §4, §5, §6

[4] = tested on: Plasmodium falciparum, chloroquine-resistant strain RFCR3; assay: activity against P. falciparum in vitro, strain RFCR3; assay type: cell-based; details: chloroquine-resistant strain RFCR3, 48 h-72 h, read-out: IC50 (50% growth inhibition)
Method: as §1, §2, §3, §4, §5, §6

[5] = tested on: Plasmodium falciparum, chloroquine-resistant strain ItG2 F6; assay: activity against P. falciparum in vitro, strain ItG2 F6; assay type: cell-based; details: chloroquine-resistant strain ItG2 F6, 48 h-72 h, read-out: IC50 (50% growth inhibition)
Method: as §1, §2, §3, §4, §5, §6

[6] = tested on: Plasmodium falciparum, chloroquine-resistant strain Indo; assay: activity against P. falciparum in vitro, strain Indo; assay type: cell-based; details: chloroquine-resistant strain Indo, 48 h-72 h, read-out: IC50 (50% growth inhibition)
Method: as §1, §2, §3, §4, §5, §6

[7] = tested on: Plasmodium falciparum, chloroquine-resistant strain K1; assay: activity against P. falciparum in vitro, strain K1; assay type: cell-based; details: chloroquine-resistant strain K1, 48 h-72 h; for IC50: Plasmodium falciparum, read-out: IC50 (50% growth inhibition)
Method: as §1, §2, §3, §4, §5, §6

[8] = tested on: Plasmodium falciparum, chloroquine-resistant strain W2; assay: activity against P. falciparum in vitro, strain W2; assay type: cell-based; details: chloroquine-resistant strain W2, 48 h-72 h, read-out: IC50 (50% growth inhibition)
Method: as §1, §2, §3, §4, §5, §6

[9] = tested on: Plasmodium falciparum, chloroquine-resistant strain 7G8; assay: activity against P. falciparum in vitro, strain 7G8; assay type: cell-based; details: chloroquine-resistant strain 7G8, 48 h-72 h, read-out: IC50 (50% growth inhibition)
Method: as §1, §2, §3, §4, §5, §6

[10] = tested on: Plasmodium falciparum, chloroquine-resistant strain W2 Mef; assay: activity against P. falciparum in vitro, strain W2 Mef; assay type: cell-based; details: 48 h-72 h, read-out: IC50 (50% growth inhibition)
Method: as §1, §2, §3, §4, §5, §6

[11] = tested on: Plasmodium berghei (strain ANKA); assay: activity against Plasmodium berghei in vivo (infected mice); details: mice; for ED50: single administration po, dose reducing average erythrocyte infection rate by 50%, read-out: ED50 (po); for inhibition in vivo at 10 mg/kg: 48 hours after treatment (D+3)
Method: Test method for the determination of the activity against Plasmodium berghei in vivo
The preparations according to the present invention were tested on mice infected with malaria pathogens (Plasmodium berghei). Male albino mice (IBM:MORO(SPF), FUELLINSDORF) weighing about 25 g were used as the test animals. They were kept in climatized rooms at 21°-22° C. in groups of 5 animals per cage. They received ad libitum a diet feed with a low PABA content ("NAFAG FUTTER" No. 9009 PAB-45, PABA content 45 mg/kg) and drinking water. On the first day of the test (D0) the test animals were infected with Plasmodium berghei (strain ANKA). For this there was used heparinized blood of a donor mouse with about 30% parasitemia, which was diluted with physiological saline such that it contains 10^8 parasitized erythrocytes per ml. 0.2 ml of this suspension was injected intravenously (i.v.) into the mice to be treated and into the control mice. In untreated control animals the parasitemia normally reaches 30-40% on the third day after the infection (D+3) and the test animals die between days +5 and +7.
The substances to be tested were dissolved or suspended in distilled water or in a mixture of 7% Tween 80, 3% alcohol (96%) and water. Usually, 0.25 ml of this solution or suspension was administered once subcutaneously and perorally to groups of 5 test animals. Treatment was effected 24 hours after the infection. 10 control animals were treated in the same manner with solvent or suspension medium per test.
All substances were tested in a first test in a single dosage of 10 mg/kg. Only those substances which in this test (10 mg/kg) had shown a parasitaemia reduction of 90% were used for the titration.
48 hours after the treatment (D+3), blood smears were prepared from all animals using blood from tail veins and were stained with Giemsa. The average erythrocyte infection rate (parasitemia in %) in the control groups as well as in the groups which had been treated with the test compounds was determined by counting under a microscope. The difference in the average values of the infection rates of control group (100%) and treated groups was calculated and expressed as a percentage reduction (GI %). The ED50 or ED90 was determined mathematically by means of the JMP programme (nonlinear fit). The ED50 (ED90) in mg/kg is that dose which after single administration reduces the average erythrocyte infection rate by 50% (90%) in comparison to the control group.
Table 2 below contains data with respect to the activity measured against Plasmodium berghei in mice: GI % is the percentage reduction in the parasitemia after a single dose of 10 mg/kg of the test substance administered perorally (po) or subcutaneously (sc); ED50 and ED90 are the effective doses of the test substance administered perorally or subcutaneously.

[12] = single dose 10 mg/kg po, read-out: GI % at 10 mg/kg (po): percentage reduction in the parasitemia
[13] = single dose 10 mg/kg sc, read-out: GI % at 10 mg/kg (sc): percentage reduction in the parasitemia

Compound	IC50 [1]	IC50 [2]	IC50 [3]	IC50 [4]	IC50 [5]	IC50 [6]	IC50 [7]	IC50 [8]	IC50 [9]	IC50 [10]	ED50 [11]	inhibition in vivo at 10 mg/kg [11, 12]	inhibition in vivo at 10 mg/kg [11, 13]	IC50 (50% growth inhibition) [1]	IC50 (50% growth inhibition) [7]
CN(C)CCNc1ccnc2cc(Cl)ccc12 [Example 5, N2-(7-Chloro-quinolin-4-yl)-N1,N1-dimethyl-ethane-1,2-diamine]	4 ng/mL (≈ 0.016 µM)	9 ng/mL (≈ 0.036 µM)	6 ng/mL (≈ 0.024 µM)	6 ng/mL (≈ 0.024 µM)	4 ng/mL (≈ 0.016 µM)	4 ng/mL (≈ 0.016 µM)	7 ng/mL (≈ 0.028 µM)	7 ng/mL (≈ 0.028 µM)	7 ng/mL (≈ 0.028 µM)	9 ng/mL (≈ 0.036 µM)	3.3 mg/kg	99.5%	99%		
CCN(CC)CCNc1ccnc2cc(Cl)ccc12 [Example 6, N2-(7-Chloro-quinolin-4-yl)-N1,N1-diethyl-ethane-1,2-diamine]	5 ng/mL (≈ 0.018 µM)	8 ng/mL (≈ 0.0288 µM)	8 ng/mL (≈ 0.0288 µM)	8 ng/mL (≈ 0.0288 µM)	5 ng/mL (≈ 0.018 µM)	4 ng/mL (≈ 0.0144 µM)	9 ng/mL (≈ 0.0324 µM)	8 ng/mL (≈ 0.0288 µM)	9 ng/mL (≈ 0.0324 µM)		3.5 mg/kg	99%	99%		
Clc1ccc2c(NCCN3CCCC3)ccnc2c1 [Example 7, (7-Chloro-quinolin-4-yl)-(2-pyrrolidin-1-yl-ethyl)-amine]	4 ng/mL (≈ 0.0145 µM)	7 ng/mL (≈ 0.0254 µM)	6 ng/mL (≈ 0.0218 µM)	7 ng/mL (≈ 0.0254 µM)	5 ng/mL (≈ 0.0181 µM)	4 ng/mL (≈ 0.0145 µM)	8 ng/mL (≈ 0.029 µM)	7 ng/mL (≈ 0.0254 µM)	8 ng/mL (≈ 0.029 µM)	8 ng/mL (≈ 0.029 µM)					
CN(C)CCCNc1ccnc2cc(Cl)ccc12 [Example 15, N3-(7-Chloro-quinolin-4-yl)-N1,N1-dimethyl-propane-1,3-diamine]	2 ng/mL (≈ 0.00758 µM)	5 ng/mL (≈ 0.019 µM)	3 ng/mL (≈ 0.0114 µM)	5 ng/mL (≈ 0.019 µM)	3 ng/mL (≈ 0.0114 µM)	3 ng/mL (≈ 0.0114 µM)	6 ng/mL (≈ 0.0227 µM)	7 ng/mL (≈ 0.0265 µM)	7 ng/mL (≈ 0.0265 µM)	12 ng/mL (≈ 0.0455 µM)	2 mg/kg	99.8%	99.9%		
CCN(CC)CCCNc1ccnc2cc(Cl)ccc12 [Example 16, N3-(7-Chloro-quinolin-4-yl)-N1,N1-diethyl-propane-1,3-diamine]	3 ng/mL (≈ 0.0103 µM)	6 ng/mL (≈ 0.0206 µM)	5 ng/mL (≈ 0.0171 µM)	8 ng/mL (≈ 0.0274 µM)	5 ng/mL (≈ 0.0171 µM)	4 ng/mL (≈ 0.0137 µM)	9 ng/mL (≈ 0.0308 µM)	9 ng/mL (≈ 0.0308 µM)	9 ng/mL (≈ 0.0308 µM)		2 mg/kg	99.9%	99.9%		
C[C@@H](CN(C)C)Nc1ccnc2cc(Cl)ccc12 [Example 33c, (S)-N2-(7-Chloro-quinolin-4-yl)-N1,N1-dimethyl-propane-1,2-diamine]	8 ng/mL (≈ 0.0303 µM)						24 ng/mL (≈ 0.091 µM)				1.9 mg/kg	99.9%	99.9%		
C[C@H](CN(C)C)Nc1ccnc2cc(Cl)ccc12 [Example 33d, (R)-N2-(7-Chloro-quinolin-4-yl)-N1,N1-dimethyl-propane-1,2-diamine]	8 ng/mL (≈ 0.0303 µM)						23 ng/mL (≈ 0.0872 µM)				2.2 mg/kg	99.9%	99.9%		
CCN(CC)C[C@H](C)Nc1ccnc2cc(Cl)ccc12 [Example 33e, (S)-N2-(7-Chloro-quinolin-4-yl)-N1,N1-diethyl-propane-1,2-diamine]	12 ng/mL (≈ 0.0411 µM)						53 ng/mL (≈ 0.182 µM)				3.1 mg/kg	99.8%	99.9%		
CCN(CC)C[C@@H](C)Nc1ccnc2cc(Cl)ccc12 [Example 33f, (R)-N2 (7-Chloro-quinolin-4-yl)-N1,N1-diethyl-propane-1,2-diamine]	12 ng/mL (≈ 0.0411 µM)						41 ng/mL (≈ 0.14 µM)				2.8 mg/kg	99.8%	99.9%		
C[C@@H](CNc1ccnc2cc(Cl)ccc12)N(C)C [Example 33g, (S)-N1-(7-chloro-quinoline-4-yl)-N2,N2-dimethyl-propane-1,2-diamine]	5 ng/mL (≈ 0.019 µM)						17 ng/mL (≈ 0.0644 µM)								
(R)-N1 -(7-Chloro-quinolin-4-yl)-N2,N2 -dimethyl-propane-1,2-diamine [Example 33h]														7 ng/mL	18 ng/mL
